# Test results published in article PMC6792352, “Limited Chemical Structural Diversity Found to Modulate Thyroid Hormone Receptor in the Tox21 Chemical Library” (Environmental Health Perspectives, 2019).
# Counter-ions that a name gives are not always drawn. Like-named read-outs stand apart in the source and are kept apart here.
# Tested on: GH3-TRE-Luc cell line
# Conditions: read-out: AC50 (uM) modified / 1000, viability, 1 nM T3 present, 24 h
smiles,measurement,setting,value
CO[C@@H]1[C@H](OC(=O)/C=C/C=C/C=C/C=C/C(=O)O)CC[C@]2(CO2)[C@H]1[C@@]1(C)O[C@@H]1CC=C(C)C [Fumagillin],CC50,Tox21_110001=Tox21_112066,42.9 µM
CCOc1ccc2c(c1)C(C)=CC(C)(C)N2 [Ethoxyquin],CC50,Tox21_110001=Tox21_110388,39.8 µM
COc1ccc(CN(CCN(C)C)c2ccccn2)cc1 [Pyrilamine],CC50,Tox21_110001=Tox21_200978,39.2 µM
CC(=C(CCO)SSCC1CCCO1)N(C=O)Cc1cnc(C)nc1N (stereo in doubt) [Fursultiamine],CC50,Tox21_110001=Tox21_112989,34.7 µM
CCCCCCCCCC[N+](C)(C)CCCCCCCCCC [Didecyldimethylammonium bromide],CC50,Tox21_110001=Tox21_112302,6.15 µM
CCCCCCCCCCCCn1cc[n+](C)c1 [1-Dodecyl-3-methylimidazolium tetrafluoroborate],CC50,Tox21_110001=Tox21_202629,3.46 µM
c1ccc(C(O[C@@H]2CCCN(CCc3ccc4c(c3)OCO4)C2)c2ccccc2)cc1 [Zamifenacin],CC50,Tox21_110001=Tox21_300210,40 µM
CSc1ccc2c(c1)N(CCC1CCCCN1C)c1ccccc1S2 (centres unmarked) [Thioridazine],CC50,Tox21_110001=Tox21_110294,6.53 µM
CCCCCCCCCCCCn1cc[n+](C)c1 [1-Dodecyl-3-methylimidazolium hexafluorophosphate],CC50,Tox21_110001=Tox21_200596,4.11 µM
Cc1oncc1C(=O)Nc1ccc(C(F)(F)F)cc1 [Leflunomide],CC50,Tox21_110001=Tox21_110182,9.39 µM
same,CC50,Tox21_110001=Tox21_301873,> 90 µM
NCCc1ccc(O)c(O)c1 [Dopamine],CC50,Tox21_110001=Tox21_110167,37 µM
CCCCCCCCCCCCCC[P+](CCCCCC)(CCCCCC)CCCCCC [Trihexyltetradecylphosphonium dicyanamide],CC50,Tox21_110001=Tox21_202613,2.76 µM
CCCCCCCCCCCCCC[P+](CCCCCC)(CCCCCC)CCCCCC [Trihexyltetradecylphosphonium hexafluorophosphate],CC50,Tox21_110001=Tox21_200750,5.33 µM
CC(C)(C)c1ccc(C(O)CCCN2CCC(C(O)(c3ccccc3)c3ccccc3)CC2)cc1 (centres unmarked) [Terfenadine],CC50,Tox21_110001=Tox21_110296,5.45 µM
CN(C)CCCN1c2ccccc2Sc2ccc(Cl)cc21 [Chlorpromazine],CC50,Tox21_110001=Tox21_110120,8.03 µM
[H]/N=C(\N/C(=N/[H])NCCCCCCNC(=N)NC(=N)Nc1ccc(Cl)cc1)Nc1ccc(Cl)cc1 [Chlorhexidine diacetate],CC50,Tox21_110001=Tox21_302363,5.83 µM
CC(C)(C)c1cc(O)ccc1O [tert-Butylhydroquinone],CC50,Tox21_110001=Tox21_110007,7.35 µM
same,CC50,Tox21_110001=Tox21_202309,64.9 µM
same,CC50,Tox21_110001=Tox21_300081,37.7 µM
COC(=O)[C@H]1[C@H]2C[C@@H]3c4[nH]c5cc(OC)ccc5c4CCN3C[C@H]2C[C@@H](OC(=O)c2cc(OC)c(OC)c(OC)c2)[C@@H]1OC [Reserpine],CC50,Tox21_110001=Tox21_111107,12.5 µM
same,CC50,Tox21_110001=Tox21_202395,22.9 µM
same,CC50,Tox21_110001=Tox21_300537,75.5 µM
"Nc1ccc(Nc2ccccc2)cc1 [N-Phenyl-1,4-benzenediamine]",CC50,Tox21_110001=Tox21_202144,42.9 µM
same,CC50,Tox21_110001=Tox21_300027,22.6 µM
CC(=O)O[C@@]12CO[C@@H]1C[C@H](O)[C@@]1(C)C(=O)[C@H](O)C3=C(C)[C@@H](OC(=O)[C@H](O)[C@@H](NC(=O)OC(C)(C)C)c4ccccc4)C[C@@](O)([C@@H](OC(=O)c4ccccc4)[C@H]21)C3(C)C [Docetaxel],CC50,Tox21_110001=Tox21_112781,0.0619 µM
same,CC50,Tox21_110001=Tox21_113088,0.364 µM
CCCCCCCCCCCCCCCCn1cc[n+](C)c1 [1-Hexadecyl-3-methylimidazolium chloride],CC50,Tox21_110001=Tox21_200600,21.4 µM
CN1CCCCC1CCN1c2ccccc2Sc2ccc([S+](C)[O-])cc21 (centres unmarked) [Mesoridazine],CC50,Tox21_110001=Tox21_112018,18.9 µM
Clc1ccc2c(c1)C(N1CCNCC1)=Nc1ccccc1O2 [Amoxapine],CC50,Tox21_110001=Tox21_302352,20.3 µM
"Nc1ccc(Nc2ccccc2)cc1 [N-Phenyl-1,4-benzenediamine hydrochloride]",CC50,Tox21_110001=Tox21_200117,57.3 µM
COc1cc([C@@H]2c3cc4c(cc3[C@@H](O[C@@H]3O[C@@H]5CO[C@@H](C)O[C@H]5[C@H](O)[C@H]3O)[C@H]3COC(=O)[C@H]23)OCO4)cc(OC)c1O [Etoposide],CC50,Tox21_110001=Tox21_110630,6.45 µM
same,CC50,Tox21_110001=Tox21_302201,2.85 µM
CCC(C)(C)C(=O)O[C@H]1C[C@@H](C)C=C2C=C[C@H](C)[C@H](CC[C@@H]3C[C@@H](O)CC(=O)O3)[C@H]21 [Simvastatin],CC50,Tox21_110001=Tox21_300400,72.4 µM
Nc1ncn([C@@H]2O[C@H](CO)[C@@H](O)[C@H]2O)c(=O)n1 [5-Azacytidine],CC50,Tox21_110001=Tox21_111032,5.77 µM
same,CC50,Tox21_110001=Tox21_302985,19.3 µM
CCCCCCCCCCCC[N+](C)(C)Cc1ccccc1 [Benzyldodecyldimethylammonium bromide],CC50,Tox21_110001=Tox21_113091,5.39 µM
COc1ccc(CCN2CCC(Nc3nc4ccccc4n3Cc3ccc(F)cc3)CC2)cc1 [Astemizole],CC50,Tox21_110001=Tox21_110680,4.42 µM
same,CC50,Tox21_110001=Tox21_200095,0.889 µM
O=C1Cc2cc(CCN3CCN(c4nsc5ccccc45)CC3)c(Cl)cc2N1 [Ziprasidone],CC50,Tox21_110001=Tox21_113525,15.3 µM
Nc1nc(Cl)nc2c1ncn2[C@H]1C[C@H](O)[C@@H](CO)O1 [Cladribine],CC50,Tox21_110001=Tox21_110834,0.386 µM
same,CC50,Tox21_110001=Tox21_300596,0.166 µM
CCCC[n+]1ccc(C)cc1 [1-Butyl-4-methylpyridinium chloride],CC50,Tox21_110001=Tox21_202685,39.2 µM
CC[n+]1ccccc1 [1-Ethylpyridinium bromide],CC50,Tox21_110001=Tox21_202695,32.7 µM
CC/C(=C(\c1ccc(O)cc1)c1ccc(OCCN(C)C)cc1)c1ccccc1 [(Z)-4-Hydroxytamoxifen],CC50,Tox21_110001=Tox21_200943,5.77 µM
O=C(OC[C@H]1O[C@@H](OC(=O)c2cc(O)c(O)c(OC(=O)c3cc(O)c(O)c(O)c3)c2)[C@H](OC(=O)c2cc(O)c(O)c(OC(=O)c3cc(O)c(O)c(O)c3)c2)[C@@H](OC(=O)c2cc(O)c(O)c(OC(=O)c3cc(O)c(O)c(O)c3)c2)[C@@H]1OC(=O)c1cc(O)c(O)c(OC(=O)c2cc(O)c(O)c(O)c2)c1)c1cc(O)c(O)c(OC(=O)c2cc(O)c(O)c(O)c2)c1 [Tannic acid],CC50,Tox21_110001=Tox21_111422,3.05 µM
same,CC50,Tox21_110001=Tox21_300079,15.7 µM
